Source: US12083098B2, “Treatment of idiopathic pulmonary fibrosis with glycogen synthase kinase 3 form β inhibitors” (Actuate Therapeutics Inc., priority 2018, dated 2024)
Entries after “also recorded” stand apart in the source; their conditions may differ.

Legend:
[1] = system: bleomycin-induced pulmonary fibrosis; test: Bleomycin-induced pulmonary fibrosis model in mice; assay type: in vivo, C57BL/6 mice
Description: All animal studies were approved by the Institutional Animal Care and Use Committee at the University of Texas Health Science Center at Tyler. C57BL/6 mice (10-12 weeks of age, ≈20 g (from Jackson Laboratory, Bar Harbor ME) were first anesthetized with xylazine/ketamine by intraperitoneal (TP) injection. Lung injury was then initiated in accordance with (Sisson T H et al., Am J Pathol 2015, 185:[…]) with some modifications. Bleomycin sulfate (Teva, 0.8 units/kg) was administered intratracheally via an intratracheal cannula. Animals were monitored daily for sign of respiratory distress, significant weight loss or moribund condition. The control group received normal saline under the same conditions.
Treatments were begun 14 d after the initiation of injury. For GSK-3β inhibitor studies, treatment with 9-ING-41 (gift from Actuate Therapeutics, Ft. Worth, TX), at 30 mg/kg, or vehicle control dimethylsulfoxide/DMSO in a volume of 40 μl, was administered daily by IP injection for up to 14 d.
At the completion of the 28 d time course mice were evaluated by flexivent (Tucker T et al., Am J Respir Cell Mol Biol 2019 (doi: 10.1165/rcmb.2018-0121OC. Epub ahead of print); Kamata H et al., Sci Rep 2017, 7:4556; Boren J et al., supra; Tucker T A et al., 2014, supra; Tucker T A et al., Clin Transl Med 5: 17, 2016) for changes in pulmonary function including elastance and compliance. Briefly, mice were anesthetized with a ketamine/xylazine mixture. Anesthetized mice were intubated by inserting a sterile, 20-gauge intravenous cannula through the vocal cords into the trachea and were maintained under anesthesia using isoflurane during pulmonary function testing. Measurements were performed using the flexiVent system (SCIREQ, Tempe AZ). The “snapshot perturbation method” was used to determine lung compliance, according to manufacturer's specifications. At 28 d, mice were euthanized and lungs harvested en bloc. Lung morphometry was determined by trichrome staining of 5 μm lung tissue sections as described in the above cited references. All tissue sections were first de-paraffinized and subjected to antigen retrieval using a citrate buffer at 95° C. for 20 minutes. Tissue analyses, collagen deposition and localization were initially assessed by Trichrome staining. Immunofluorescence was used to visualize α-SMA (MAB1420, R&D), Confocal microscopy was then used to visualize immunofluorescence and co-localization of the markers. Images were acquired from a field of view at 0.4-μm z-axis increments with the LSM 510 Meta confocal system (Carl Zeiss) at 40× as described.
(§1) All statistical analyses of animal studies was performed using the Mann Whitney U test. (Student's t-test was used for in vitro studies). A p-value of less than 0.05 was considered significant.

[2] = system: TGF-β adenovirus induced pulmonary fibrosis; test: TGF-β adenovirus-induced pulmonary fibrosis model in mice; assay type: in vivo
Description: In a second model, pulmonary fibrosis was initiated by intratracheal instillation of constitutively active TGF-β adenoviral vectors (Ad-TGF-β) bearing C223S/C225S mutations, as reported by Mackinnon A C et al., Am J Respir Crit Care Med 2012, 185:537-46) with some modifications. Briefly, 3×10^8 pfu of Ad-TGF-β or eGFP adenovirus control vector (Ad-eGFP) were administered intratracheally in a volume of 40 μl. Mice were then monitored daily until the completion of the 14 d time-course. For GSK-3β inhibition studies, mice received daily 9-ING-41 treatment 7 d after administration of the adenoviral vectors. At the conclusion of the time-course pulmonary function testing and CT scans were performed as described (Tucker T et al., 2019, supra; Kamata H et al., 2017, supra; Boren J et al., 2017, supra; Tucker T A et al., 2016, supra.
as §1
Pulmonary fibrosis was initiated by intratracheal instillation of constitutively active TGF-β adenoviral vectors (Ad-TGF-0) bearing C223S/C225S mutations, as previously reported (Mackinnon A C et al., Am J Respir Crit Care Med 2012, 185:537-46) with some modifications. Briefly, 3×10^8 plaque forming units (pfu) of Ad-TGF-β or eGFP adenovirus control vector (Ad-eGFP) were administered intratracheally in a volume of 40 μl. Mice were then monitored daily until the completion of the 14 d time-course. For GSK-3β inhibition studies, mice received daily 9-ING-41 treatment 7 d after administration of the adenoviral vectors. At the conclusion of the time-course pulmonary function testing and CT scans were performed as described (Tucker T et al., 2019, supra; Kamata H et al., 2017, supra; Boren J et al., 2017, supra; Tucker T A et al., 2016, supra.

## Cn1cc(C2=C(c3coc4ccc(F)cc34)C(=O)NC2=O)c2cc3c(cc21)OCO3 [9-ING-41]
[1]; bleomycin 0.8 U/kg intratracheal, 30 mg/kg daily ip from day 14, read at 28 d, vs DMSO vehicle, p=0.026, 30 mg/kg
  lung volume (gated CT scan): significantly improved; also recorded: increased lung volume
[1]; bleomycin injured lungs, compared to vehicle (DMSO) treated controls
  collagen 1 deposition in lung sections (immunostaining, confocal microscopy 40×): reduced
[1]; bleomycin model, 30 mg/kg daily ip, 5 μm sections, n=6, compared to vehicle treated animals
  areas of injury / fibrotic foci in lung sections (Trichrome): fewer in number and smaller
[1]; bleomycin model, 30 mg/kg daily ip, compared to DMSO-treated controls
  collagen deposition within the fibrotic lesions: generally reduced
[1]; bleomycin sulfate 0.8 U/kg intratracheal, 9-ING-41 30 mg/kg daily ip from day 14 for up to 14 d, read at 28 d, vs DMSO vehicle, p=0.04, 30 mg/kg
  lung compliance (Scireq flexivent): significantly improved; also recorded: improved lung function
[1]; marker of myofibroblast differentiation, n=3 mice/treatment, compared to vehicle (DMSO)
  α-SMA expression in lung sections (immunostaining, confocal microscopy 40×): reduced
[2]; Ad-TGF-β 3×10^8 pfu intratracheal, 9-ING-41 30 mg/kg daily ip from day 7 for 7 d, read at 14 d, n=6, p<0.05 vs controls, 30 mg/kg
  lung compliance: significantly improved; also recorded: improved lung function
[2]; TGF-β adenovirus model, at completion of 14 d time course
  lung volume: increased lung volume
[2]; TGF-β adenovirus model, compared to DMSO-treated controls, n=6
  areas of injury and collagen deposition in lung sections (Trichrome): reduced areas of injury
